Measured values taken from patent US6953671B2, “Plasma phospholipid transfer protein (PLTP) deficiency represents an anti-atherogenic state and PLTP inhibitor has anti-atherosclerosis action” (The Trustees of Columbia University in the City of New York, priority 2001, dated 2005).
Blank lines part the entries; values can stand above or below the molecule they belong to. Where a SMILES comes first, the peptide text is derived from it. [ ]: non-standard residue; d: D form. Nle = CCCC[C@H](N)C(=O)O

Key:
[1] = system: hepatocytes from apoBTg/PLTP0 and apoBTg mice; experiment: apoB in cell lysates of radiolabeled primary hepatocytes with or without ALLN; assay type: cell-based, mouse; settings: 40 μg/ml ALLN, 30 min labeling; especially PLTP deficient cells
Procedure: (§1) Primary hepatocyte culture, immunoprecipitation and analysis of apoB or albumin from culture medium or cel lysate were performed as described previously^18. A, pulse change experiment, apoB in the cell media; B, pulse chase experiment, apoB in the cell lysate; C, determination of apoB secretion rate in the presence and absence of the proteoscflal inhibitor ALLN. Hepatocytes from apoBTg/PLTP0 and apoBTg mice were radiolabeled continuously with ^35Smethionine/cystein with or without 40 μg/ml ALLN fcr 30 mm. Cells ware lysed and lysates immunoprecipitated with apoB antibody. Samples were separated on SDS PAGE. D, determination of apoB secretion rate in the presence and absence of heparin. Hepatocytes from apoBTG/PLTP0 and apoBTg mice were radiolabeled continuously with ^35Smethionine/cystein with or without 10 mg/ml heparin for 3 hr. […]
(§2) Immunoprecipitation and analysis of apoB from culture medium or cell lysate: The primary hepatocytes were allowed to attach to dishes for 90 minutes. […] At each chase time point (30 minutes, 1 hour and 2 hours), medium apoB and cell lysate apoB were immunoprecipitated by apoB antibody together with protein A/G agarose, the precipitates were size-fractionated on a 4% SDS PAGE gel, the gel was dried, and the incorporation of ^35S into apoB48 and apoB100 was assessed with a Fuji Bio-Imaging Analyzer (Fuji Medical Systems, Stamford, Conn.).

[2] = system: hepatocytes from apoBTg/PLTP0 and apoBTg mice; experiment: apoB/BLp accumulation in media of primary hepatocytes with or without heparin; assay type: cell-based, mouse; settings: 10 mg/ml heparin, 3 hr
Procedure: as §1, §2

[3] = target: plasma phospholipid transfer protein (PLTP) (UniProt P55065); experiment: PLTP inhibition assay (radiolabeled phospholipid transfer from vesicles to HDL by plasma); assay type: biochemical; settings: 3 μl plasma, 0-50 μM compound, 400 μl assay
Procedure: PLTP activity assays: Egg phosphatidylcholine (10 μmol) containing 10 nmol of [3H]PC (L-a-dipalmitoyl-[2-palmitoyl-9,10-3H(N)]-phosphatidylcholine) was dried under a stream of nitrogen, resuspended in 1 ml of a solution of 10 mM Tris, 150 mM NaCl, 1 mM ethylenediaminetetraacetic acid (EDTA) (pH 7.4), and then probe-sonicated and centrifuged. Transfer of radiolabeled phospholipid was measured by incubating 3 μl of plasma with radiolabeled phospholipid vesicles (125 nmol PC) and HDL (250 μg protein) in a final volume of 400 μl at 37° C. for 1 hour.
The following compound, which is a known cholesteryl ester transfer protein (CETP) inhibitor (compound No. 3 in Okamoto et al.^38) was dissolved in dimethlysulfonyl oxide (DMSO) (stock solution 2 mM): [drawing 1] A final volume of 400 μl assay system was prepared containing phosphatidylcholine, HDL, 3 μl of plasma, and 0-50 μM of the compound. Vesicles were subsequently precipitated by the addition of 300 μl of a solution of 500 mM NaCl, 215 mM MnCl2, 445 U/ml heparin, and the radioactivity of a 500-μl aliquot of the supernatant was measured.

Molecule: CCCC[C@@H](C=O)NC(=O)[C@H](CC(C)C)NC(=O)[C@H](CC(C)C)NC(C)=O [ALLN, N-acetyl-leu-leu-norleu-AL] (Ac-Leu-Leu-[Nle]-aldehyde)
levels of apoB within cells [1]: increased levels of apoB within cells

Molecule: heparin
accumulation of BLp in media ([2]; PLTP deficient hepatocytes): failed to increase BLp accumulation
accumulation of BLp in media ([2]; hepatocytes from apoB transgenic mice): increased the accumulation of BLp in media

Ki [3]: 15 µM
Molecule: CC(C)(C)C(=O)Nc1ccccc1SSc1ccccc1NC(=O)C(C)(C)C [compound #3]
